Measurements as given in US8212016B2, “NPC1L1 orthologues” (Schering Corporation, priority 2006, dated 2012).

What was measured:
[1] = system: plasma and liver cholesterol; assay: Percent cholesterol lowering in plasma and liver; type: in vivo; conditions: hamster
human NPC1L1 = target: T1, human NPC1L1 (Homo sapiens, UniProt Q9UHC9, T1073A); conditions: human NPC1L1, Garcia-Calvo et al. 2005; read-out: Kd, previously reported; cited from earlier work
T1 construct: expressed in transfected cells
T1 sequence (Q9UHC9 22-1332 isoform Q9UHC9-2 T1046A): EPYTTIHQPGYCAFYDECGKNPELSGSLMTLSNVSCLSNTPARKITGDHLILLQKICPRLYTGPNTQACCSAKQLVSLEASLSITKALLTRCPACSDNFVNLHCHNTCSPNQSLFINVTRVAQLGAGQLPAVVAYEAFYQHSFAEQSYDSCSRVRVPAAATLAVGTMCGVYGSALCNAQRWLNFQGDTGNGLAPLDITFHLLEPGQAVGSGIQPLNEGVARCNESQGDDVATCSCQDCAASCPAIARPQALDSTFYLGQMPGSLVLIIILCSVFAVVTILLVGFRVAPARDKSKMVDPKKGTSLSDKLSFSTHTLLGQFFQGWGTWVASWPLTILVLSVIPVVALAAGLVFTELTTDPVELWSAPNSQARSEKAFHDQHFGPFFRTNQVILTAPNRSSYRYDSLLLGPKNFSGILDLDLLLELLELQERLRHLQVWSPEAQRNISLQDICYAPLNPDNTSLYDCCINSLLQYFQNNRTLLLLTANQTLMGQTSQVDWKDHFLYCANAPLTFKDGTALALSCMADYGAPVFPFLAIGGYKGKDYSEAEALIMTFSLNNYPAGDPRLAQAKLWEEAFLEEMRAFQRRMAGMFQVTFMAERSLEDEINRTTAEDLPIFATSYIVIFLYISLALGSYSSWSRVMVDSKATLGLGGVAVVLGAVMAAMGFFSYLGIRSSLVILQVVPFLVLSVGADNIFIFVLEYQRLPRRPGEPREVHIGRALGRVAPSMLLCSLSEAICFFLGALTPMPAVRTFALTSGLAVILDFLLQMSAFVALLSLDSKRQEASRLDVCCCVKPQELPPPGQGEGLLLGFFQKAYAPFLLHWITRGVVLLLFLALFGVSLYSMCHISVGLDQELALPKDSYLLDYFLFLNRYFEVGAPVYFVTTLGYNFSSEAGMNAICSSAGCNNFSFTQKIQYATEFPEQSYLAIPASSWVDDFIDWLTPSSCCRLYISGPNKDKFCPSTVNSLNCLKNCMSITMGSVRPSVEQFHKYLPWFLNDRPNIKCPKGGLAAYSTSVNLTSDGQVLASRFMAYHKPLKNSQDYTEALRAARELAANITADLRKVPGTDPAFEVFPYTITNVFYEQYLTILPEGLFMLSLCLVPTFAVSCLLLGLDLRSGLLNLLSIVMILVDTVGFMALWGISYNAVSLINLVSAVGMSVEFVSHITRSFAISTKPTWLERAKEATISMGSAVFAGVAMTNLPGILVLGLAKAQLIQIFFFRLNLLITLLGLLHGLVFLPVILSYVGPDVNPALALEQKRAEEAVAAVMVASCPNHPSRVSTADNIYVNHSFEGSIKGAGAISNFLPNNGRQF

SMILES: O=C(O)[C@H]1O[C@@H](Oc2ccc([C@@H]3[C@@H](CC[C@H](O)c4ccc(F)cc4)C(=O)N3c3ccc(F)cc3)cc2)[C@H](O)[C@@H](O)[C@@H]1O [compound 4, glucuronidated ezetimibe]
- cholesterol lowering Liver ([1]; liver): 92%
- cholesterol lowering Plasma ([1]; plasma): 48%
- Kd (human NPC1L1): 220 nM
